The values below are quoted from earlier work in US20140051737A1, “METHODS FOR THE TREATMENT AND DIAGNOSTIC OF PULMONARY ARTERIAL HYPERTENSION” (UNIVERSITE LAVAL, priority 2011, published 2014).

For the data set, the system named is patients carrying the BRCA1 or BRCA2 mutation. The conditions noted are these: cited from earlier work.

Turning to `O=C(c1cc(Cc2n[nH]c(=O)c3ccccc23)ccc1F)N1CCN(C(=O)C2CC2)CC1` [olaparib], the objective antitumor activity entry was “only showed objective antitumor activity in patients carrying the BRCA1 or BRCA2 mutation”.
